Assay results reported in patent US6472348B1, “Pyridone derivatives and herbicides” (Kumiai Chemical Industry Co., Ltd., priority 1996, dated 2002).

Key:
[1] = system: China jute (Ab); assay: Test Example 5: crop plant selectivity by upland field soil treatment (wheat), herbicidal effects; assay type: in vivo; design: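 grade of growth control; 5 = at least 90%; 4 = 70 to 90%; 3 = 50 to 70%; 2 = 30 to 50%; 1 = 10 to 30%; 0 = under 10%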; details: 21st day after application
Outline: (§1)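 Wheat and weeds were sown in sand-filled pots and covered with soil, then treated by soil application. Plants grew in a greenhouse, and herbicidal effect and crop phytotoxicity were scored on a rating scale 21 days after application.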

[2] = system: common lambsquarters (Ch); assay: as above; assay type: in vivo; design: scale not given here; details: 21st day after application
Outline: as §1

[3] = system: China jute (Ab); assay: Test Example 9: crop plant selectivity by upland field foliage treatment (wheat), herbicidal effects; assay type: in vivo; design: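 grade of growth control; 5 = at least 90%; 4 = 70 to 90%; 3 = 50 to 70%; 2 = 30 to 50%; 1 = 10 to 30%; 0 = under 10%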; details: dose 1.6 g ai/10a, 14th day after treatment
Outline: (§2)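 Read-out: weed control and wheat injury, rated by a defined scoring standard 14 days after foliar application.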

[4] = system: common lambsquarters (Ch); assay: as above; assay type: in vivo; design: scale not given here; details: dose 1.6 g ai/10a, 14th day after treatment
Outline: as §2

[5] = system: pale smartweed (Po); assay: as above; assay type: in vivo; design: scale not given here; details: dose 1.6 g ai/10a, 14th day after treatment
Outline: as §2

[6] = system: slender amaranth (Am); assay: as above; assay type: in vivo; design: scale not given here; details: dose 1.6 g ai/10a, 14th day after treatment
Outline: as §2

[7] = system: corn (Ze); assay: Test Example 11: crop plant selectivity by upland field foliage treatment (corn), phytotoxicity; details: dose 1.6 g ai/10a
Outline: (§3)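 Corn with pale smartweed, slender amaranth, common lambsquarters and China jute sown in sand-filled pots and grown 2 weeks in a greenhouse before foliage treatment. Herbicidal effect and crop phytotoxicity scored on day 14 after treatment against a rating standard.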

[8] = system: common lambsquarters (Ch); assay: Test Example 11: crop plant selectivity by upland field foliage treatment (corn), herbicidal effects; assay type: in vivo; design: scale not given here; details: dose 1.6 g ai/10a
Outline: as §3

[9] = system: pale smartweed (Po); assay: as above; assay type: in vivo; design: scale not given here; details: dose 1.6 g ai/10a
Outline: as §3

[10] = system: slender amaranth (Am); assay: as above; assay type: in vivo; design: scale not given here; details: dose 1.6 g ai/10a
Outline: as §3

[11] = upland field foliage treatment, 14th day after treatment
[12] = upland field foliage treatment (corn test), 14th day after treatment

SMILES	Herbicidal effects Ab ([1]; dose 1.6 g ai/10a)	Herbicidal effects Ab ([1]; dose 6.3 g ai/10a)	Herbicidal effects Ch ([2]; dose 1.6 g ai/10a)	Herbicidal effects Ch ([2]; dose 6.3 g ai/10a)	Herbicidal effects Ab [3]	Herbicidal effects Ch [4]	Herbicidal effects Po [5]	Herbicidal effects Am [6]	Phytotoxicity Ze [7, 11]	Herbicidal effects Ch [8, 12]	Herbicidal effects Po [9, 12]	Herbicidal effects Am [10, 12]	Phytotoxicity Ze ([7]; corn, foliage treatment, evaluated on 14th day after treatment, index per Table 47)	Herbicidal effects Ch ([8]; common lambsquarters, foliage treatment, evaluated on 14th day after treatment, index per Table 47)	Herbicidal effects Po ([9]; pale smartweed, foliage treatment, evaluated on 14th day after treatment, index per Table 47)	Herbicidal effects Am ([10]; slender amaranth, foliage treatment, evaluated on 14th day after treatment, index per Table 47)
CCOC(=O)c1cc(-c2ccc(C(F)(F)F)n(C)c2=O)c(F)cc1Cl [1-65]	5	5	5	5	5	5	5	5	2	5	5	5	–	–	–	–
Cn1c(C(F)(F)F)ccc(-c2cc(OCCCl)c(Cl)cc2F)c1=O [1-171]	–	5	–	5	5	5	5	5	1	5	5	5	–	–	–	–
C#CCOc1cc(-c2ccc(C(F)(F)F)n(N)c2=O)c(F)cc1Cl [1-178]	5	–	5	–	5	5	5	5	2	5	5	5	–	–	–	–
COc1cc(-c2ccc(C(F)(F)F)n(N)c2=O)c(F)cc1Cl [1-179]	–	5	–	5	5	5	5	5	1	5	5	5	–	–	–	–
CCOCOc1cc(-c2ccc(C(F)(F)F)n(C)c2=O)c(F)cc1Cl [1-181]	–	5	–	5	5	5	5	5	2	5	5	5	–	–	–	–
C#CC(C)Oc1cc(Cl)cc(F)c1-c1ccc(C(F)(F)F)n(C)c1=O (centres unmarked) [1′-5]	5	5	5	5	5	5	5	5	1	5	5	5	–	–	–	–
C=CC(C)Oc1cc(-c2ccc(C(F)(F)F)n(C)c2=O)c(F)cc1Cl (centres unmarked) [Compound 1-182]	–	5	–	5	5	5	5	5	1	5	5	5	–	–	–	–
CCON=Cc1cc(-c2ccc(C(F)(F)F)n(C)c2=O)c(F)cc1Cl [Compound 1-187]	–	5	–	5	5	5	5	5	2	5	5	5	–	–	–	–
CCOC(=O)CON=Cc1cc(-c2ccc(C(F)(F)F)n(C)c2=O)c(F)cc1Cl [Compound 1-191]	–	5	–	5	5	5	5	5	2	5	5	5	–	–	–	–
C=CC(O)c1cc(-c2ccc(C(F)(F)F)n(C)c2=O)c(F)cc1Cl (centres unmarked) [Compound 1-197]	–	5	–	5	5	5	5	5	2	5	5	5	–	–	–	–
CSCOc1cc(-c2ccc(C(F)(F)F)n(C)c2=O)c(F)cc1Cl [Compound 1-208]	–	5	–	5	5	5	5	5	2	5	5	5	–	–	–	–
C#CCN1C(=O)COc2cc(Cl)c(-c3ccc(C(F)(F)F)n(C)c3=O)cc21 [Compound 2-25]	5	5	5	5	5	5	5	5	2	5	5	5	–	–	–	–
C=CCN1C(=O)COc2cc(Cl)c(-c3ccc(C(F)(F)F)n(C)c3=O)cc21 [Compound 2-26]	–	5	–	5	5	5	5	5	2	5	5	5	–	–	–	–
CCCc1cc2c(-c3ccc(C(F)(F)F)n(C)c3=O)c(F)cc(Cl)c2o1 [Compound 4-3]	–	5	–	5	5	5	5	5	2	5	5	5	–	–	–	–
CCc1cc2c(Cl)cc(F)c(-c3ccc(C(F)(F)F)n(C)c3=O)c2o1 [Compound 5-2]	–	5	–	5	5	5	5	5	–	–	–	–	2	5	5	5
CCCC(=O)c1cc(-c2ccc(C(F)(F)F)n(C)c2=O)c(F)cc1Cl [Compound No. 1-194, 3-[4-chloro-2-fluoro-5-(1-oxobutyl)phenyl]-1-methyl-6-trifluoromethyl-2(1H)-pyridone]	–	5	–	5	5	5	5	5	1	5	5	5	–	–	–	–
Cn1c(C(F)(F)F)ccc(-c2c(F)cc(Cl)c3oc(CO)cc23)c1=O [Compound No. 4-5, 3-(7-chloro-5-fluoro-2-hydroxymethylbenzofuran-4-yl)-1-methyl-6-trifluoromethyl-2-(1H)-pyridone]	–	5	–	5	5	5	5	5	1	5	5	5	–	–	–	–
